A melting point compilation (Tetko et al.)

SMILES	melting point
COC(=O)C1=C(C(=O)OC)Cc2cc3c(cc2C1)CC3	133 °C
Oc1ccc(C(F)(F)F)cc1	46 °C
FC(F)(Cl)C(Cl)(Cl)C(F)(F)Cl	-42.9 °C
O=C(O)c1[nH]c2ccccc2c1Br	185 to 188 °C
COCC(=O)N(c1c(C)cccc1C)N1CCOC1=O	104 °C
Nc1ncccc1O	170 to 176 °C
O=C(c1ccccc1)N(O)c1ccccc1	119 to 123 °C
Oc1ccnc2cc(Cl)ccc12	280 °C
FC(F)(F)CCBr	< 25 °C
O=Cc1cccc(CBr)c1	49 to 51 °C
NC(=O)c1cccc(C(F)(F)F)c1	124 °C
CC1(c2ccc([N+](=O)[O-])cc2)Nn2c(nnc2C(F)(F)F)S1 (centres undefined)	255 °C
BrCc1cc(CBr)c(CBr)cc1CBr	156 to 162 °C
Clc1cc2c(cc1Cl)Oc1cc(Cl)c(Cl)cc1O2	305 °C
CCOP(=S)(OCC)Oc1cc(C)nc(N(CC)CC)n1	15 °C
CCCNC(=O)NCCC	105 °C
CSc1ccc(C#N)cc1	62 °C
Cc1ccccc1N1C(=O)c2cc(S(N)(=O)=O)c(Cl)cc2NC1C (centres undefined)	252 °C
N#CCC(N)=S	113 to 119 °C
C=C(C)CCCCCCCCCCCC	-15 °C

SMILES	melting point
c1ccc(C/C(=N\Nc2ccccc2)c2cccc3ccccc23)cc1	101 to 102 °C
CCc1ccc2cc(O)c(O)cc2c1	149 °C
CC(=O)N=C1C=CC(=O)C=C1	74.5 °C
COC(=O)c1cnc(Br)s1	63 °C
Brc1cccc(-c2cc[nH]n2)c1	73 to 74 °C
CC1(c2ccccc2)NC(=O)NC1=O (centres undefined)	199 to 201 °C
C#CC1(O)CCC2C3CCc4cc(O)ccc4C3C(OC)CC21C (centres undefined)	280 °C
O=[N+]([O-])c1cc(C(F)(F)F)cc([N+](=O)[O-])c1O	47 to 48 °C
CCOC(=O)c1c(SC)nn(C(=O)NNc2ccccc2)c1N	205 °C
O=C(Nc1cccc(N=Nc2cccc(NC(=O)c3ccccc3)c2)c1)c1ccccc1	285 °C
CC1CCC(C(C)C)C(OC(=O)C2=CCC(C(=O)OC3CC(C)CCC3C(C)C)CC2)C1 (centres undefined)	125 °C
NCc1ccc(C(=O)O)cc1	300 °C
Nc1cccc(N)c1N	103 °C
O=C(ON=C(Cc1ccccc1)c1ccccc1)c1ccccc1	92 °C
NC(CCS)C(=O)O (centres undefined)	232 °C
CCOC(=O)c1[nH]c(C)c(C=O)c1C	145 to 146 °C
CCCC(O)C1(C)CCC(C(=O)O)C(C)(C)O1 (centres undefined)	179 °C
O=C(Cc1ccccc1)c1ccc2c3c(ccc([N+](=O)[O-])c13)CC2	189 °C
Nc1c([N+](=O)[O-])cccc1[N+](=O)[O-]	142 °C

Second part, the molecule after the results:

melting point	SMILES
95 °C	COc1cc(C(=O)Oc2ccc(/C=C/C(=O)c3ccccc3)cc2)cc(OC)c1OC
180 °C	CC(C)(C)OC(=O)C(C)(C)ON=C(C(=O)O)c1csc(N)n1
-14.5 °C	Cc1cccc(C(C)C)c1O
138 to 139 °C	O=[N+]([O-])c1ccc(/C=C\c2ccccc2[N+](=O)[O-])cc1
92 to 95 °C	NC(=NO)c1ccc(F)cc1
79 °C	COC(=O)c1cc(Br)c(Br)s1
73 to 75 °C	COC(=O)c1ccc[nH]1
99 to 100 °C	COc1ccccc1C(O)=C1C(=O)CN(C(C)C)C1=O
209 °C	CCOC(=O)C1=C(C)NC(=O)NC1c1cccc(OC)c1O (centres undefined)
-88 °C	C=CC#CC=C
204 °C	Cc1cccc(C(=O)N(NC(=O)c2ccccc2)C(C)(C)C)c1C
184 to 185 °C	Nc1nccc(-c2cc(-c3cccc(C(F)(F)F)c3)no2)n1
120 °C	O=C(NCc1ccccn1)c1cc([N+](=O)[O-])cc([N+](=O)[O-])c1
177 to 179 °C	Cc1ccc(S(=O)(=O)NN=Cc2coc(C=Cc3ccccc3)n2)cc1
128 °C	Cc1c(C)c(C)c(O)c(C)c1C
207 °C	CC(C)NCC(O)c1ccc(NS(C)(=O)=O)cc1 (centres undefined)
195 to 199 °C	O=C(O)C=Cc1cc(Br)ccc1F
32 °C	Cc1ccc(F)c(O)c1
124 °C	CCCCCC(=O)OC1(C(C)=O)CCC2C3CCC4=CC(=O)CCC4C3CCC21C (centres undefined)
2 °C	CCC#CCCCCCCCCCCCCCC
127 to 131 °C	Cc1cc(C=O)c(O)c(C=O)c1
-78 °C	O=C1CCCCC1C1=CCCCC1 (centres undefined)
218 to 220 °C	N[C@H]1CCC[C@H]1C(=O)O (relative stereo)
37.5 °C	CCC(N)(CO)CO
315 °C	CCn1cc(C(=O)O)c(=O)c2cnc(N3CCCC3)nc21
